Data: ChEMBL document CHEMBL1138165, “Structure-activity studies of quinuclidinone analogs as anti-proliferative agents in lung cancer cell lines” (2006)
Activity calls are given as the source filed them. The calls are words filed in the database; no cut-off is given here.

Key:
NCI-H1299 [1] = experiment: Viability of H1299 (p53 null) cells at 4 mM by MTT assay; format: functional; details: Homo sapiens
NCI-H1299 [2] = experiment: Viability of H1299 (p53 null) cells in presence of 4 Gy at 4 mM by MTT assay; format: functional; details: Homo sapiens

Compound: CC1(C)OCC2(CO1)C(=O)C1CCN2CC1
- GI50 (NCI-H1299 [1]): 19.2 µM
- GI50 (NCI-H1299 [2]): 4.74 µM

Compound: O=C1CN2CCC1CC2
- Activity (NCI-H1299 [1]): inactive

Compound: O=C1C2CCN(CC2)C12COC(c1ccccc1)OC2 (stereo not drawn)
- GI50 (NCI-H1299 [1]): 17.3 µM
- GI50 (NCI-H1299 [2]): 4.49 µM

Compound: CC(=O)OCC1(COC(C)=O)C(=O)C2CCN1CC2
- Activity (NCI-H1299 [1]): Active

Compound: O=C1C2CCN(CC2)C1(CO)CO
- Activity (NCI-H1299 [1]): Active

Compound: OCC1(CO)C(O)C2CCN1CC2 (stereo not drawn)
- Activity (NCI-H1299 [1]): inactive
